Measurements published in article PMC4846432 (Science Advances, 2016).

Legend:
mouse P-gp [1] = biological target: T1, mouse P-gp (Mus musculus, UniProt P21447, N83Q/N87Q/N90Q); test: Yeast chemosensitization; format: cell-based; settings: for IYeast, inhibition in the yeast cytotoxicity assay: P-gp-expressing yeast, +10 μM DOX; for Chemosensitizing effect on P-gp-expressing yeast toward DOX (in words): cellular assay
mouse P-gp [2] = biological target: T1, mouse P-gp; test: biochemical
mouse P-gp [3] = biological target: T1, mouse P-gp; settings: endrin vs its stereoisomer dieldrin

T1 sequence (P21447 whole entry N83Q/N87Q/N90Q): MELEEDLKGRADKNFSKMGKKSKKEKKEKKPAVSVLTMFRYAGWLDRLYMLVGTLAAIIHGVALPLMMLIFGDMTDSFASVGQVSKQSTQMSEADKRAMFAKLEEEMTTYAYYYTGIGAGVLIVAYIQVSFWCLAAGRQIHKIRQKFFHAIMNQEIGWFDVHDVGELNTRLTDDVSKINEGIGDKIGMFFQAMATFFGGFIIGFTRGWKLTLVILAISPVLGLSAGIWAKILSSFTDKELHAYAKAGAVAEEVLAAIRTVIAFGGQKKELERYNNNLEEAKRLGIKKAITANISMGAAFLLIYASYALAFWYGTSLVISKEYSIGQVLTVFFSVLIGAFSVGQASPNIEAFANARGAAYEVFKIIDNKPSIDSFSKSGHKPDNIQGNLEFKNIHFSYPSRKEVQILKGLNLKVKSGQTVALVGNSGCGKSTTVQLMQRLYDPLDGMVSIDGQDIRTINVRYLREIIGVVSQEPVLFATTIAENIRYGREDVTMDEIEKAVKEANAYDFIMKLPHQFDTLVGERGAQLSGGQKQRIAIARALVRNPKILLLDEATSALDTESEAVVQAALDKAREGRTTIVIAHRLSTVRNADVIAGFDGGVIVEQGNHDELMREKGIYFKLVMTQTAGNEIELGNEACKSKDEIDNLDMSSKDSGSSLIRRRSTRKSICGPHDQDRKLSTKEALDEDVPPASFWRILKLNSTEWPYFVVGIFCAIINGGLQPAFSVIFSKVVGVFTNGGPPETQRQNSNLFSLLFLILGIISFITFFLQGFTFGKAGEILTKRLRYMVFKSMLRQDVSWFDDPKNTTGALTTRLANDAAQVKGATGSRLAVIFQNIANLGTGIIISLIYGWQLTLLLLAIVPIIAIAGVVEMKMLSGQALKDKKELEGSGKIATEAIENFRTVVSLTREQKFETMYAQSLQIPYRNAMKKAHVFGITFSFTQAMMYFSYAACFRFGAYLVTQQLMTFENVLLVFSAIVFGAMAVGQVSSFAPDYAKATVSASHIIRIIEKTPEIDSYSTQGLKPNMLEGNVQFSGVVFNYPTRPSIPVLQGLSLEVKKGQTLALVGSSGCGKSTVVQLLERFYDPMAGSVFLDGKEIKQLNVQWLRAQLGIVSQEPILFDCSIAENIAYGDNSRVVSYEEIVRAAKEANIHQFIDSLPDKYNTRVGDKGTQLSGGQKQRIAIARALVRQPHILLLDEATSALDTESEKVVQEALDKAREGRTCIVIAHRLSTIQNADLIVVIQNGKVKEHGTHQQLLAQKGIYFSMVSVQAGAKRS

O=S(=O)(O)C(F)(F)C(F)(F)C(F)(F)C(F)(F)C(F)(F)C(F)(F)C(F)(F)C(F)(F)F [PFOS, perfluorooctane sulfonate]
IYeast, inhibition in the yeast cytotoxicity assay (mouse P-gp [1]): N

Clc1cc(Cl)c(-c2cc(Cl)c(Cl)c(Cl)c2)c(Cl)c1 [PCB-168]
IYeast, inhibition in the yeast cytotoxicity assay (mouse P-gp [1]): N

Clc1ccc(-c2cc(Cl)c(Cl)cc2Cl)cc1Cl [PCB-118]
IYeast, inhibition in the yeast cytotoxicity assay (mouse P-gp [1]): N

Clc1ccc(-c2c(Cl)c(Cl)cc(Cl)c2Cl)c(Cl)c1 [PCB-147]
IYeast, inhibition in the yeast cytotoxicity assay (mouse P-gp [1]): Y

Cl[C@H]1[C@H](Cl)[C@@H](Cl)[C@@H](Cl)[C@H](Cl)[C@H]1Cl [γ-HCH (lindane), lindane]
IC50 (mouse P-gp [2]): 82.6 µM
IYeast, inhibition in the yeast cytotoxicity assay (mouse P-gp [1]): N

Clc1cc(Cl)c(-c2c(Cl)cccc2Cl)c(Cl)c1Cl [PCB-145]
IYeast, inhibition in the yeast cytotoxicity assay (mouse P-gp [1]): Y

Brc1ccc(Oc2c(Br)cc(Br)cc2Br)c(Br)c1 [PBDE-100]
IC50 (mouse P-gp [2]): 23.2 µM
IYeast, inhibition in the yeast cytotoxicity assay (mouse P-gp [1]): Y

Cl[C@H]1[C@H](Cl)[C@@H](Cl)[C@H](Cl)[C@@H](Cl)[C@@H]1Cl [β-HCH, β-hexachlorocyclohexane]
IYeast, inhibition in the yeast cytotoxicity assay (mouse P-gp [1]): N

ClC1=C(Cl)C2(Cl)C3C4C=CC(C4)C3C1(Cl)C2(Cl)Cl (stereo not shown) [Aldrin]
IC50 (mouse P-gp [2]): 26.2 µM
IYeast, inhibition in the yeast cytotoxicity assay (mouse P-gp [1]): Y

Brc1ccc(Oc2cc(Br)ccc2Br)c(Br)c1 [PBDE-49]
IYeast, inhibition in the yeast cytotoxicity assay (mouse P-gp [1]): Y

ClC(Cl)=C(c1ccc(Cl)cc1)c1ccc(Cl)cc1 [4,4′-DDE, dichlorodiphenyldichloroethylene]
IC50 (mouse P-gp [2]): 31.3 µM
IYeast, inhibition in the yeast cytotoxicity assay (mouse P-gp [1]): Y

ClC1=C(Cl)[C@]2(Cl)[C@@H]3[C@@H]4C[C@@H]([C@H]5O[C@@H]45)[C@@H]3[C@@]1(Cl)C2(Cl)Cl [Dieldrin]
IC50 (mouse P-gp [2]): 21.8 µM
IYeast, inhibition in the yeast cytotoxicity assay (mouse P-gp [1]): Y
Chemosensitizing effect on P-gp-expressing yeast toward DOX (in words) (mouse P-gp [1]): markedly lower inhibitory effect

ClC1=C(Cl)C2(Cl)C3C(Cl)C=CC3C1(Cl)C2(Cl)Cl (stereo not shown) [Heptachlor]
IC50 (mouse P-gp [2]): 10.4 µM
IYeast, inhibition in the yeast cytotoxicity assay (mouse P-gp [1]): N

Clc1cccc(Cl)c1-c1c(Cl)c(Cl)c(Cl)c(Cl)c1Cl [PCB-186]
IYeast, inhibition in the yeast cytotoxicity assay (mouse P-gp [1]): N

COc1ccc(C(c2ccc(OC)cc2)C(Cl)(Cl)Cl)cc1 [Methoxychlor]
IC50 (mouse P-gp [2]): 21.7 µM
IYeast, inhibition in the yeast cytotoxicity assay (mouse P-gp [1]): N

ClC1(Cl)C2(Cl)C3(Cl)C4(Cl)C(Cl)(Cl)C5(Cl)C3(Cl)C1(Cl)C5(Cl)C24Cl (stereo not shown) [Mirex]
IC50 (mouse P-gp [2]): 3 µM
IYeast, inhibition in the yeast cytotoxicity assay (mouse P-gp [1]): N

ClC1=C(Cl)C2(Cl)C3C4CC(C5OC45)C3C1(Cl)C2(Cl)Cl (stereo not shown) [Endrin]
IC50 (mouse P-gp [2]): 1.1 µM
Potency in ATPase assay relative to dieldrin (mouse P-gp [3]): ~20 times
IYeast, inhibition in the yeast cytotoxicity assay (mouse P-gp [1]): Y
Chemosensitizing effect on P-gp-expressing yeast toward DOX (in words) (mouse P-gp [1]): most pronounced chemosensitizing effect

Clc1ccccc1-c1c(Cl)c(Cl)c(Cl)c(Cl)c1Cl [PCB-142]
IYeast, inhibition in the yeast cytotoxicity assay (mouse P-gp [1]): Y

Cl[C@H]1[C@H](Cl)[C@H](Cl)[C@@H](Cl)[C@H](Cl)[C@H]1Cl [α-HCH, α-hexachlorocyclohexane]
IC50 (mouse P-gp [2]): 26.8 µM
IYeast, inhibition in the yeast cytotoxicity assay (mouse P-gp [1]): N

Clc1cc(-c2cc(Cl)c(Cl)c(Cl)c2)cc(Cl)c1Cl [PCB-169]
IYeast, inhibition in the yeast cytotoxicity assay (mouse P-gp [1]): N

Brc1ccc(Oc2ccccc2)cc1 [PBDE-3]
IYeast, inhibition in the yeast cytotoxicity assay (mouse P-gp [1]): N

Clc1cc(Cl)c(-c2cc(Cl)c(Cl)cc2Cl)c(Cl)c1 [PCB-154]
IYeast, inhibition in the yeast cytotoxicity assay (mouse P-gp [1]): N

CC(C)(c1ccc(O)cc1)c1ccc(O)cc1 [Bisphenol A]
IYeast, inhibition in the yeast cytotoxicity assay (mouse P-gp [1]): N

Clc1cc(Cl)cc(-c2c(Cl)cc(Cl)c(Cl)c2Cl)c1 [PCB-161]
IYeast, inhibition in the yeast cytotoxicity assay (mouse P-gp [1]): N

Clc1cc(Cl)c(Cl)c(-c2c(Cl)cccc2Cl)c1Cl [PCB-152]
IYeast, inhibition in the yeast cytotoxicity assay (mouse P-gp [1]): N

CCCCC(CC)COC(=O)c1ccccc1C(=O)OCC(CC)CCCC (stereo not shown) [DEHP, di(2-ethylhexyl)phthalate]
IYeast, inhibition in the yeast cytotoxicity assay (mouse P-gp [1]): N

O=C(O)C(F)(F)C(F)(F)C(F)(F)C(F)(F)C(F)(F)C(F)(F)C(F)(F)F [PFOA, perfluorooctanoic acid]
IC50 (mouse P-gp [2]): 156 µM
IYeast, inhibition in the yeast cytotoxicity assay (mouse P-gp [1]): N

Clc1cc(Cl)c(-c2cc(Cl)c(Cl)cc2Cl)cc1Cl [PCB-153]
IYeast, inhibition in the yeast cytotoxicity assay (mouse P-gp [1]): N

Brc1c(Br)c(Br)c(Oc2c(Br)c(Br)c(Br)c(Br)c2Br)c(Br)c1Br [PBDE-209]
IYeast, inhibition in the yeast cytotoxicity assay (mouse P-gp [1]): N
